{"source": "patent US12233047B2", "about": "“Pharmaceutical combination and use thereof” (ASCENTAGE PHARMA (SUZHOU) CO., LTD., priority 2019, dated 2025)", "key": {"[1]": {"test_system": "Human AML cell line MOLM-13 (FLT3-ITD positive and wild type TP53 gene)", "assay": "Human MOLM-13 AML systemic mouse xenograft model, survival", "assay_type": "in vivo", "conditions": "MOLM-13 systemic model, Compound 23 10 mg/kg, Compound C 20 mg/kg, p.o. q2d × 21 d", "experimental": "The formulation of Compound C was prepared as homogenous suspension in 0.2% HPMC using a mortar. The drug suspension was prepared every three days or once a week and placed at 4° C. when not in use. Before use, the drug suspension was placed at room temperature and shaken to mix well. The formulation of Compound C was administered to mice via p.o. in a volume of 10 mL/kg.\nThe formulation of Compound 23 was prepared in 0.2% HPMC in a mortar to generate homogenous suspension. The drug suspension was prepared once every other day and placed at 4° C. when not in use. Before use, the drug suspension was placed at room temperature and shaken well. The formulation of Compound 23 was administered to mice via p.o. in a volume of 10 mL/kg.\nMOLM-13 cell lines (Human AML cell line MOLM-13 (FLT3-ITD positive and wild type TP53 gene)) were maintained in RPMI-1640 (Cat. C11875500BT, GIBCO) with 10% fetal bovine serum (Cat. 10099-141, GIBCO), 1% L-glutamine, 100 U/mL penicillin G and 100 μg/mL streptomycin (Cat. GNM15140, Hangzhou Geno Biomedical Technology Co., Ltd). Cells were incubated at 37° C. in a humidified incubator with 5% CO2.\nSix to eight weeks old, female, NOD SCID and BALB/c nude mice were used. Animals were obtained from Vital River Laboratories (VRL, Beijing, China, license number SCXK(J) 2012-0001 and SCXK(J) 2016-0006). The body weights were 17-24 g.\nMOLM-13 systemic tumor model were established by injecting tumor cells into the tail vein (10×10^6 cells/mouse) under the sterile condition. To establish the MOLM-13 systemic model, all animals were intraperitoneally injected (i.p.) with cyclophosphamide (150 mg/kg) for two consecutive days before the inoculation of MOLM-13 cells. On the third day after cell inoculation, animals were randomized into 10 mice per group and treatment was initiated (day 1) according to Table 2.\nThe animals were euthanized when the experimental animals had symptoms such as weight loss and weight loss greater than 20%, limb paralysis, tumor metastasis to the eye causing ocular protrusion, tumor metastasis to the abdominal cavity causing abdominal enlargement. These severe health issues were considered as the same as animal death caused by tumor growth and the affected animals were sacrificed immediately.\nThe date of the last mouse died (the last measurement) was used for analysis of median overall survival and the generation of Kaplan-Meier plots. Survival curves of different treatment groups were compared using log-rank test with Bonferroni's multiple test. All data were analyzed in SPSS version 18.0 (IBM, Armonk, NY, U.S.A.). Prism version 6 (GraphPad Software Inc., San Diego, CA, U.S.A.) was used for graphic presentation."}, "[2]": {"test_system": "Human AML cell line MV-4-11 (FLT3-ITD positive and wild type TP53 gene)", "assay": "Human MV-4-11 AML subcutaneous mouse xenograft model", "assay_type": "in vivo", "conditions": "MV-4-11 subcutaneous xenograft, Compound 23 10 mg/kg, Compound C 30 mg/kg", "experimental": "The formulation of Compound C was prepared as homogenous suspension in 0.2% HPMC using a mortar. The drug suspension was prepared every three days or once a week and placed at 4° C. when not in use. Before use, the drug suspension was placed at room temperature and shaken to mix well. The formulation of Compound C was administered to mice via p.o. in a volume of 10 mL/kg. […] The drug suspension was prepared once every other day and placed at 4° C. when not in use. Before use, the drug suspension was placed at room temperature and shaken well. […] MV-4-11 cells (Human AML cell line MV-4-11 (FLT3-ITD positive and wild type TP53 gene)) were maintained in IMDM (Cat. C12440500BT, GIBCO), with 10% fetal bovine serum (Cat. 10099-141, GIBCO), 1% L-glutamine, 100 U/mL penicillin G and 100 μg/mL streptomycin (Cat. GNM15140, Hangzhou Geno Biomedical Technology Co., Ltd). Cells were incubated at 37° C. in a humidified incubator with 5% CO2. Six to eight weeks old, female, NOD SCID and BALB/c nude mice were used. Animals were obtained from Vital River Laboratories (VRL, Beijing, China, license number SCXK(J) 2012-0001 and SCXK(J) 2016-0006). The body weights were 17-24 g. Randomization was conducted when the size of xenograft tumors reached 100-150 mm^3. Based on the size of the tumor and body weight, animals were randomly assigned into experimental groups. […] MV-4-11 subcutaneous xenograft models were established by subcutaneously injecting tumor cells (1×10^7 cells (50% Matrigel)/mouse) into the right flank of the mouse under the sterile condition. When the tumors reached an appropriate size (100-200 mm^3), mice were randomized into 6 mice per group and treatment was initiated (day 1) according to Table 4. [table] The tumors sizes and animal body weights were measured twice a week. Tumor volumes were estimated from measurements of two diameters of the individual tumors as follows: Tumor Volume (mm^3)=(a×b^2)/2 Relative tumor volume (RTV) were calculated according to the follows: RTV=Vt/V1 where V1 and Vt were respectively the average tumor volume on the first day of treatment (day 1) and the average tumor volume on a certain time point (day T). Standard NCI procedures were used to calculate tumor parameters (Teicher, B. A. (2011). “Tumor Models in Cancer Research.” Second Edition, Human Press). Percent tumor growth inhibition (% T/C) was calculated as the mean RTV of treated tumors (T) divided by the mean RTV of control tumors (C)×100%. […] A body weight loss (mean of group) of greater than 20%, or greater than 20% of drug deaths are considered to indicate an excessively toxic dosage. The synergistic analysis was performed using the following formula described in Clarke R. Issues in experimental design and endpoint analysis in the study of experimental cytotoxic agents in vivo in breast cancer and other models[J]. Breast Cancer Research & Treatment, 1997, 46(2-3):255-278, which is incorporated by reference in its entirety: expected value=(A/C)×(B/C); actual value=(AB)/C; A: RTV of drug A; B: RTV of drug B; C=RTV of the vehicle control group; AB=RTV of the combination group. Ratio=expected/actual value. […] A ratio=1 indicates the two drugs have additive effects. A ratio <1 indicates the two drugs may have antagonist effects. According to the earlier publication (Gao, H., et al. (2015). “High-throughput screening using patient-derived tumor xenografts to predict clinical trial drug response” Nat Med 21: 1318), additional measurements of response included stable disease (SD), partial tumor regression (PR), and complete regression (CR) were determined by comparing tumor volume change at day t to its baseline: tumor volume change (%)=(Vt−V1)/V1. […] For each time t, the average of tumor volume change from t=1 to t was also calculated. […]"}}, "data": [{"smiles": "CCN1[C@@H](C(=O)NC23CCC(C(=O)O)(CC2)CC3)[C@H](c2cccc(Cl)c2F)[C@]2(C(=O)Nc3cc(Cl)ccc32)C12CCCCC2", "note": "[Compound C]", "values": [{"measurement": "Median survival time of mice", "setting": "[1]; vehicle 19 days", "value": 25.5, "unit": "days"}, {"measurement": "Prolonged survival time of mice", "setting": "[1]; versus vehicle", "value": 6.5, "unit": "days"}, {"measurement": "Tumor weight on D 22 (Mean ± SEM)", "setting": "[2]; day 22, p.o. q2d × 22 d, vehicle 2.29 ± 0.29, in g (unit assumed)", "value": "1.45 ± 0.32"}, {"measurement": "T/C(%)@D 22", "setting": "[2]; mean RTV treated/control, day 22, p.o. q2d", "value": 59.6, "unit": "%"}, {"measurement": "RTV@D 22", "setting": "[2]; relative tumor volume day 22, p.o. q2d, vehicle 18.2 ± 3.3", "value": "10.8 ± 1.6"}]}]}
